Data: the kinase profiling compilation of Christmann-Franck et al. (2016)

Assays:
Assay in all cases: KINOMEscan competition binding
Details in all cases: compound 10.0 µM
MST1R (human) = MST1R (human) (UniProt Q04912)
CDK9 (human) = CDK9 (human) (UniProt P50750)
CAMK2D (human) = CAMK2D (human) (UniProt Q13557)
GSK3A (human) = GSK3A (human) (UniProt P49840)
ZAP70 (human) = ZAP70 (human) (UniProt P43403)
PRKX (human) = PRKX (human) (UniProt P51817)
STK16 (human) = STK16 (human) (UniProt O75716)
TGFBR2 (human) = TGFBR2 (human) (UniProt P37173)
CDC42BPA (human) = CDC42BPA (human) (UniProt Q5VT25)
PRKACB (human) = PRKACB (human) (UniProt P22694)
NEK6 (human) = NEK6 (human) (UniProt Q9HC98)
SIK2 (human) = SIK2 (human) (UniProt Q9H0K1)
MARK2 (human) = MARK2 (human) (UniProt Q7KZI7)
STK38L (human) = STK38L (human) (UniProt Q9Y2H1)
SLK (human) = SLK (human) (UniProt Q9H2G2)
EPHA3 (human) = EPHA3 (human) (UniProt P29320)
RPS6KA1 KD1 (human) = RPS6KA1 KD1 (human) (UniProt Q15418)
SYK (human) = SYK (human) (UniProt P43405)
MARK4 (human) = MARK4 (human) (UniProt Q96L34)
MARK1 (human) = MARK1 (human) (UniProt Q9P0L2)
CLK3 (human) = CLK3 (human) (UniProt P49761)
CAMKK1 (human) = CAMKK1 (human) (UniProt Q8N5S9)
PRKAA1 (human) = PRKAA1 (human) (UniProt Q13131)
CLK1 (human) = CLK1 (human) (UniProt P49759)
STK25 (human) = STK25 (human) (UniProt O00506)
MAPK3 (human) = MAPK3 (human) (UniProt P27361)
NEK9 (human) = NEK9 (human) (UniProt Q8TD19)
INSRR (human) = INSRR (human) (UniProt P14616)
AXL (human) = AXL (human) (UniProt P30530)
LATS2 (human) = LATS2 (human) (UniProt Q9NRM7)
MAP4K2 (human) = MAP4K2 (human) (UniProt Q12851)
MYO3A (human) = MYO3A (human) (UniProt Q8NEV4)
IKBKE (human) = IKBKE (human) (UniProt Q14164)
ALK (human) = ALK (human) (UniProt Q9UM73)
SRPK2 (human) = SRPK2 (human) (UniProt P78362)
CSNK1A1L (human) = CSNK1A1L (human) (UniProt Q8N752)
CDK16 (human) = CDK16 (human) (UniProt Q00536)
ROS1 (human) = ROS1 (human) (UniProt P08922)
[1] = target: JAK3 JH1 catalytic (human) (UniProt P52333)
[2] = target: JAK1 JH2 pseudokinase (human) (UniProt P23458)
JAK1 JH2 pseudokinase (human), sequence (P23458 whole entry, looked up): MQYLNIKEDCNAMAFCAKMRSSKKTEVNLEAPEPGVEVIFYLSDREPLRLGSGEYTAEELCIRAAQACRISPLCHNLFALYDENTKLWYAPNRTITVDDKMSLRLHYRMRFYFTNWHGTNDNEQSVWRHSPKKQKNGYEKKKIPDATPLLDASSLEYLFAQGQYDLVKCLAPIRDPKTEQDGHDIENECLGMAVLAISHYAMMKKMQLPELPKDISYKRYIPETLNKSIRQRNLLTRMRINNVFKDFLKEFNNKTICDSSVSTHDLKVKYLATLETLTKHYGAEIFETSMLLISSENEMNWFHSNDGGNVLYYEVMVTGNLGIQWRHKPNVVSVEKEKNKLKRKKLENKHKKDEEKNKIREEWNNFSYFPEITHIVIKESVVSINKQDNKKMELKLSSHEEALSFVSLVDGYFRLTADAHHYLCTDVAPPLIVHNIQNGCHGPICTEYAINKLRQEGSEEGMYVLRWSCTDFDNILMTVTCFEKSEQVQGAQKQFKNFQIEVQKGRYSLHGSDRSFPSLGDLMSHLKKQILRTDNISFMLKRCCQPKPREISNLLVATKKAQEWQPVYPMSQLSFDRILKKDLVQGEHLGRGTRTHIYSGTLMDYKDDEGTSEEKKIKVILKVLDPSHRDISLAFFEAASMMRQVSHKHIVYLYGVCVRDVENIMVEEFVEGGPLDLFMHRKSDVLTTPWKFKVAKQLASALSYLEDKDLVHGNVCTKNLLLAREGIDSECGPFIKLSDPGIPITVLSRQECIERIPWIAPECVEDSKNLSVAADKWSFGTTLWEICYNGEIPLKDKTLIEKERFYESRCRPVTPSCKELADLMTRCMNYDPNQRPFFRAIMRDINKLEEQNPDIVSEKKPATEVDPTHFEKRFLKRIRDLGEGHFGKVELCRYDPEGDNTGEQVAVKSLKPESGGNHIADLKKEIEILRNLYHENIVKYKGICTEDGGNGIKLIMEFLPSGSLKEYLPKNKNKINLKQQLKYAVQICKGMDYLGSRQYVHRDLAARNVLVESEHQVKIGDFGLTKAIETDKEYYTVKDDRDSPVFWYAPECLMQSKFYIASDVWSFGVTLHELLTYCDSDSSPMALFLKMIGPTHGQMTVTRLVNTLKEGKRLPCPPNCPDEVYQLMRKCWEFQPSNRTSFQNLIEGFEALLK

CDK9 (human), sequence (P50750 whole entry, looked up): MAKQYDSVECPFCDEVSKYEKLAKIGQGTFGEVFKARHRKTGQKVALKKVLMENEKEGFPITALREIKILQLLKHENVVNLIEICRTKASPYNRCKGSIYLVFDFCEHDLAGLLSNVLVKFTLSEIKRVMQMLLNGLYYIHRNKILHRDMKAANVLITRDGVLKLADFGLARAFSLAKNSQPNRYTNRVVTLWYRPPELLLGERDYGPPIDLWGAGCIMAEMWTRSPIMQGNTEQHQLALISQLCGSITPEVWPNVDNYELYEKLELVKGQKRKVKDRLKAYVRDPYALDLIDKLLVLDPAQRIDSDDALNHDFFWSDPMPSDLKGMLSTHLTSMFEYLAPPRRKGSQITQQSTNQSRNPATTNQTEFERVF
CAMK2D (human), sequence (Q13557 whole entry, looked up): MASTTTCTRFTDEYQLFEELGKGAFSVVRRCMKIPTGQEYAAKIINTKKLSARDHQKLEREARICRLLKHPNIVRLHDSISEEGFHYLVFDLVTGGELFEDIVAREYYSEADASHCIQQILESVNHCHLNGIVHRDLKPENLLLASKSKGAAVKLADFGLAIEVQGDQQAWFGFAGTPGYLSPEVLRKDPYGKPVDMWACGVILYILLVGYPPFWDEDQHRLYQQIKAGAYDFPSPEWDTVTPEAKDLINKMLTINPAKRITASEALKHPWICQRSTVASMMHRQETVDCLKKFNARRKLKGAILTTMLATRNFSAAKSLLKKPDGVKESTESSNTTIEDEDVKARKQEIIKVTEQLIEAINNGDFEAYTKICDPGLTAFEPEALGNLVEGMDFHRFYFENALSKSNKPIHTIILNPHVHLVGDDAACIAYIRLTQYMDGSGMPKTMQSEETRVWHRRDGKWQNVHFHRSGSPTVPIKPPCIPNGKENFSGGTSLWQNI
CLK1 (human), sequence (P49759 whole entry, looked up): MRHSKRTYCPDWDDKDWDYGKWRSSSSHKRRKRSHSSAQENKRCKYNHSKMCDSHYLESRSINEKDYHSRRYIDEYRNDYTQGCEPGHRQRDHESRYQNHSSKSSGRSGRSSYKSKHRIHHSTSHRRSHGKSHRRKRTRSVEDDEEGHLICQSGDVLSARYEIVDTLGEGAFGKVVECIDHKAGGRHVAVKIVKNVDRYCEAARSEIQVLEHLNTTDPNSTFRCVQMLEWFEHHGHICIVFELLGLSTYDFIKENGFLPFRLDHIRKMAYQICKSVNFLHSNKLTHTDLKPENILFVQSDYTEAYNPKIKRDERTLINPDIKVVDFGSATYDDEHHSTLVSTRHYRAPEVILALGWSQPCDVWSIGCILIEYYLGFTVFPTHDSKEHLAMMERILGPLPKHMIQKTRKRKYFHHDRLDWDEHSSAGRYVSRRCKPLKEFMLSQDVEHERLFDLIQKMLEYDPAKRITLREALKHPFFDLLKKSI
SIK2 (human), sequence (Q9H0K1 whole entry, looked up): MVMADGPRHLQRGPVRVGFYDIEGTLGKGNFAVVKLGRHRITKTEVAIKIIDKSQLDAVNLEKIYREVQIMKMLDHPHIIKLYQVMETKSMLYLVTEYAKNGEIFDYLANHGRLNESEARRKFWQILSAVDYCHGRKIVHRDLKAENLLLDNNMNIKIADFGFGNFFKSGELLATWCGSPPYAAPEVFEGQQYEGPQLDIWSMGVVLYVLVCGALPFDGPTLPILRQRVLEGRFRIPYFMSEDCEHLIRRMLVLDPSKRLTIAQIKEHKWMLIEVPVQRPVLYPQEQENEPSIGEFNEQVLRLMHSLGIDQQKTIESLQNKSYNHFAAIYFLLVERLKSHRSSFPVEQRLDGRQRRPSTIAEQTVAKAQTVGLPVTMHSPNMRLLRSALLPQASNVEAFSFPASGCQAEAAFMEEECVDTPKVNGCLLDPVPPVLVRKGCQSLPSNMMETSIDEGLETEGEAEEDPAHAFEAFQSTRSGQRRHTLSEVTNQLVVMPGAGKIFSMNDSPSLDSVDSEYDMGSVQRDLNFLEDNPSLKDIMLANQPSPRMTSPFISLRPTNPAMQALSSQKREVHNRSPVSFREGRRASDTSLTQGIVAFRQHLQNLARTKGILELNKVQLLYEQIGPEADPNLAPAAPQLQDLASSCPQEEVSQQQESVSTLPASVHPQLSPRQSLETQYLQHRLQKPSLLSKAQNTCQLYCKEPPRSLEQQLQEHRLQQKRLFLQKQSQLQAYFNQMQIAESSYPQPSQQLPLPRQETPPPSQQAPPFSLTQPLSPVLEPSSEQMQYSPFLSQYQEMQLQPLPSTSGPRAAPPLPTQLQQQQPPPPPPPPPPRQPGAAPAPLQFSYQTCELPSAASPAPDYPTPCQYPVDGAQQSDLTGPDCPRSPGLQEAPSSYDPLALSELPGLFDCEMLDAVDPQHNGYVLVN
EPHA3 (human), sequence (P29320 whole entry, looked up): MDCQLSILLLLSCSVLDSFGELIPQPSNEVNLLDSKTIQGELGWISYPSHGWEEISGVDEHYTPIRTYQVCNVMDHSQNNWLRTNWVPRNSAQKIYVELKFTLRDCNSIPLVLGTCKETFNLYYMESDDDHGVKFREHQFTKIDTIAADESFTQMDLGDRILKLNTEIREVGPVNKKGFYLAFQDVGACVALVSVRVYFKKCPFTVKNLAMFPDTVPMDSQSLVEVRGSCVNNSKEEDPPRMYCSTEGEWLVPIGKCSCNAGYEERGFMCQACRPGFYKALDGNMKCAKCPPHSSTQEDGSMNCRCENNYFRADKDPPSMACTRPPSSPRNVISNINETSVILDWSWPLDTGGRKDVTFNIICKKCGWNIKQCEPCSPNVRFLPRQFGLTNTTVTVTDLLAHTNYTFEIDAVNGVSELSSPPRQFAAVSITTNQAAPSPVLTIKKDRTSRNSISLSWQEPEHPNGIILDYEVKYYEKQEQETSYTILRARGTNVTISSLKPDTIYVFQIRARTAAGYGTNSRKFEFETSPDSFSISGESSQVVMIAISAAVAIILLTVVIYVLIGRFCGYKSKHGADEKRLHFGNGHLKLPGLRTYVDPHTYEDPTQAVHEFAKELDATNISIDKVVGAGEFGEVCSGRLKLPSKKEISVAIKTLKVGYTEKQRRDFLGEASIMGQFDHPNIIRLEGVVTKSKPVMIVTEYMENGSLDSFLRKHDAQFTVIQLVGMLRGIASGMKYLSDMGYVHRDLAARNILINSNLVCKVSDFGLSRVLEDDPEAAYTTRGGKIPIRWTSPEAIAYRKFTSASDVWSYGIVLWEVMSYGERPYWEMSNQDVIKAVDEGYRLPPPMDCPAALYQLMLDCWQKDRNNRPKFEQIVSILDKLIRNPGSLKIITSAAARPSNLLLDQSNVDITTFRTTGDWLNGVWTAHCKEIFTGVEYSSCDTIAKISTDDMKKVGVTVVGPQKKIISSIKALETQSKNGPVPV
PRKAA1 (human), sequence (Q13131 whole entry, looked up): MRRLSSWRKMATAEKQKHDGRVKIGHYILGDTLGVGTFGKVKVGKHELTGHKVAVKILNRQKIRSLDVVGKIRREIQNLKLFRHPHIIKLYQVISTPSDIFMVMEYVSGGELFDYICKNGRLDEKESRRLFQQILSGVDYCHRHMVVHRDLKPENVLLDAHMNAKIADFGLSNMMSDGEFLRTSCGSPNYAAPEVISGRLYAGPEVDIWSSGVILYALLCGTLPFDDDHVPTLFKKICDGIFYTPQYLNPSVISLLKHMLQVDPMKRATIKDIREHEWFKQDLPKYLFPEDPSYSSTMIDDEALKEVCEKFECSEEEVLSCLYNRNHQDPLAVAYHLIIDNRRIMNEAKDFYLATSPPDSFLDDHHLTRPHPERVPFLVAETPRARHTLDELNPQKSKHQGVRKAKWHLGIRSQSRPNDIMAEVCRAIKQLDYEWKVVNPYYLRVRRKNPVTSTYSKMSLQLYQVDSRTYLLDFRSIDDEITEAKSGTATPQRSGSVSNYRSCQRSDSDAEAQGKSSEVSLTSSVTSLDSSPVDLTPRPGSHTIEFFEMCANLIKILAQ

In the case of `C=CC(=O)Nc1cc(NC(=O)c2ccc(C)c(NC(=O)c3ccno3)c2)cc(C(F)(F)F)c1`, the kinase still bound, per cent of control (MST1R (human)) is reported as 99%, the kinase still bound, per cent of control (CDK9 (human)) is reported as 100% and the kinase still bound, per cent of control (CAMK2D (human)) is reported as 83%. The kinase still bound, per cent of control (GSK3A (human)) was 100%, the kinase still bound, per cent of control (ZAP70 (human)) was 54% and the kinase still bound, per cent of control (PRKX (human)) was 84%. For the same molecule, the kinase still bound, per cent of control (STK16 (human)) was 100%, the kinase still bound, per cent of control (TGFBR2 (human)) was 93% and the kinase still bound, per cent of control (CDC42BPA (human)) was 100%. The kinase still bound, per cent of control (PRKACB (human)) was 100%, the kinase still bound, per cent of control (NEK6 (human)) was 100% and the kinase still bound, per cent of control (SIK2 (human)) was 100%. For the same molecule, the kinase still bound, per cent of control (MARK2 (human)) was 100%, the kinase still bound, per cent of control (STK38L (human)) was 88% and the kinase still bound, per cent of control (SLK (human)) was 100%. The kinase still bound, per cent of control (EPHA3 (human)) was 9.8%, the kinase still bound, per cent of control (RPS6KA1 KD1 (human)) was 99% and the kinase still bound, per cent of control (SYK (human)) was 100%. The kinase still bound, per cent of control (MARK4 (human)) was 100%, the kinase still bound, per cent of control (MARK1 (human)) was 100% and the kinase still bound, per cent of control (CLK3 (human)) was 100%. For the same molecule, the kinase still bound, per cent of control (CAMKK1 (human)) was 96%, the kinase still bound, per cent of control (PRKAA1 (human)) was 100% and the kinase still bound, per cent of control (CLK1 (human)) was 93%. It also gave a kinase still bound, per cent of control (STK25 (human)) of 100%, a kinase still bound, per cent of control (MAPK3 (human)) of 97% and a kinase still bound, per cent of control (NEK9 (human)) of 100%. The kinase still bound, per cent of control (INSRR (human)) was 100%, the kinase still bound, per cent of control (AXL (human)) was 100% and the kinase still bound, per cent of control (LATS2 (human)) was 88%. It also gave a kinase still bound, per cent of control (MAP4K2 (human)) of 100%, a kinase still bound, per cent of control (MYO3A (human)) of 93% and a kinase still bound, per cent of control (IKBKE (human)) of 100%. For the same molecule, the kinase still bound, per cent of control (ALK (human)) was 95%, the kinase still bound, per cent of control (SRPK2 (human)) was 89% and the kinase still bound, per cent of control (CSNK1A1L (human)) was 90%. It also gave a kinase still bound, per cent of control (CDK16 (human)) of 95%, a kinase still bound, per cent of control (ROS1 (human)) of 100% and a kinase still bound, per cent of control [1] of 100%. The kinase still bound, per cent of control [2] was 92%.
With `CN(C)C/C=C/C(=O)Nc1cccc(Nc2ncc3c(n2)N(C)c2ccccc2C(=O)N3C)c1` the kinase still bound, per cent of control (MST1R (human)) was 93%, the kinase still bound, per cent of control (CDK9 (human)) was 100% and the kinase still bound, per cent of control (CAMK2D (human)) was 62%. The kinase still bound, per cent of control (GSK3A (human)) was 69%, the kinase still bound, per cent of control (ZAP70 (human)) was 60% and the kinase still bound, per cent of control (PRKX (human)) was 100%. It also gave a kinase still bound, per cent of control (STK16 (human)) of 8.4%, a kinase still bound, per cent of control (TGFBR2 (human)) of 55% and a kinase still bound, per cent of control (CDC42BPA (human)) of 100%. For the same molecule, the kinase still bound, per cent of control (PRKACB (human)) was 100%, the kinase still bound, per cent of control (NEK6 (human)) was 73% and the kinase still bound, per cent of control (SIK2 (human)) was 9%. The kinase still bound, per cent of control (MARK2 (human)) was 21%, the kinase still bound, per cent of control (STK38L (human)) was 54% and the kinase still bound, per cent of control (SLK (human)) was 7.3%. For the same molecule, the kinase still bound, per cent of control (EPHA3 (human)) was 43%, the kinase still bound, per cent of control (RPS6KA1 KD1 (human)) was 67% and the kinase still bound, per cent of control (SYK (human)) was 50%. It also gave a kinase still bound, per cent of control (MARK4 (human)) of 1.5%, a kinase still bound, per cent of control (MARK1 (human)) of 4.3% and a kinase still bound, per cent of control (CLK3 (human)) of 82%. It also gave a kinase still bound, per cent of control (CAMKK1 (human)) of 39%, a kinase still bound, per cent of control (PRKAA1 (human)) of 0.45% and a kinase still bound, per cent of control (CLK1 (human)) of 50%. It also gave a kinase still bound, per cent of control (STK25 (human)) of 66%, a kinase still bound, per cent of control (MAPK3 (human)) of 100% and a kinase still bound, per cent of control (NEK9 (human)) of 93%. For the same molecule, the kinase still bound, per cent of control (INSRR (human)) was 100%, the kinase still bound, per cent of control (AXL (human)) was 7% and the kinase still bound, per cent of control (LATS2 (human)) was 97%. The kinase still bound, per cent of control (MAP4K2 (human)) was 13%, the kinase still bound, per cent of control (MYO3A (human)) was 100% and the kinase still bound, per cent of control (IKBKE (human)) was 100%. For the same molecule, the kinase still bound, per cent of control (ALK (human)) was 51%, the kinase still bound, per cent of control (SRPK2 (human)) was 100% and the kinase still bound, per cent of control (CSNK1A1L (human)) was 100%. For the same molecule, the kinase still bound, per cent of control (CDK16 (human)) was 95%, the kinase still bound, per cent of control (ROS1 (human)) was 27% and the kinase still bound, per cent of control [1] was 1.2%. For the same molecule, the kinase still bound, per cent of control [2] was 0.25%.
